# Measurements published in PubChem BioAssay (NCI).
#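 Cultured in 96-well plates, cells were exposed to test compound for 48 hours across five concentrations. Here, GI50 denotes the concentration required for 50% inhibition of growth. TGI denotes the concentration required for complete inhibition of growth.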
# Assays:
# Assay in all cases: DTP human tumour cell line panel, 48 h
# SF-295 CNS = test system: SF-295 CNS
# SW-620 colon = test system: SW-620 colon
# 786-0 renal = test system: 786-0 renal
# EKVX NSCLC = test system: EKVX NSCLC
# A549 NSCLC = test system: A549 NSCLC
# U251 CNS = test system: U251 CNS
# OVCAR-3 ovarian = test system: OVCAR-3 ovarian
# KM12 colon = test system: KM12 colon
# OVCAR-5 ovarian = test system: OVCAR-5 ovarian
# RPMI-8226 leukemia = test system: RPMI-8226 leukemia
SMILES,GI50 (SF-295 CNS) [µM],TGI (SF-295 CNS) [µM],GI50 (SW-620 colon) [µM],TGI (SW-620 colon) [µM],GI50 (786-0 renal) [µM],TGI (786-0 renal) [µM],GI50 (EKVX NSCLC) [µM],GI50 (A549 NSCLC) [µM],TGI (A549 NSCLC) [µM],GI50 (U251 CNS) [µM],TGI (U251 CNS) [µM],GI50 (OVCAR-3 ovarian) [µM],TGI (OVCAR-3 ovarian) [µM],GI50 (KM12 colon) [µM],TGI (KM12 colon) [µM],GI50 (OVCAR-5 ovarian) [µM],TGI (OVCAR-5 ovarian) [µM],GI50 (RPMI-8226 leukemia) [µM],TGI (RPMI-8226 leukemia) [µM],TGI (EKVX NSCLC) [µM]
C[C@@H]1C[C@@H]([C@@H](CC2CC(=O)NC(=O)C2)OC(=O)CC(=O)c2ccccc2)C(=O)[C@@H](C)C1,0.224,12.3,0.512,> 43.1,0.293,13.2,0.495,0.567,> 100,0.925,> 100,1.74,> 32.7,0.888,70.6,0.662,> 100,4.03,> 100,
C#CC1/C(=C\C(=O)OC)CCCC1O (configuration not stated),,> 100,,> 100,,> 100,,,> 100,,> 100,,> 100,,> 100,,> 100,,> 100,> 100
Cc1nnc(Nc2ccc(NC(=O)Nc3ccc(Cl)cc3)cc2)c2ccccc12,2.04,4.21,2.15,4.76,1.71,3.34,3.47,3.24,8.59,1.98,3.75,1.87,3.99,1.99,4.53,2.1,4.99,2.6,6.48,17.9
CN(C)CCC(/C=C/c1ccccc1)=N\Nc1ccccc1,,2.21,,2.06,,11.1,,,4.21,,4.58,,6.5,,13.2,,3.97,,8.52,6.47
CN1C(=O)c2ccccc2NC(=O)C12O[C@@H]2c1ccccc1 (some centres not stated),,> 100,,> 100,,> 100,,,> 100,,> 100,,> 100,,> 100,,> 100,,> 100,> 100
CC(=O)Nc1ccc(-c2csc(Nc3cccc(-c4csc(C)n4)c3)n2)cc1,0.907,> 13.2,3.51,49,2.03,18.2,4.99,1.21,18.9,1.13,9.69,0.238,,0.404,6.07,10,> 36.8,0.789,,22.2
O=C(Cc1ccc(F)c(Cl)c1)Nc1cc(C2(C(F)(F)F)CC2)nn1CC1CCCCC1,3.62,> 15,3.92,14.4,4.34,> 15,2.55,4.6,> 15,5.13,> 15,3.81,> 15,3.74,12.3,4.44,> 15,3.06,9.43,12.6
O=C(c1ccco1)c1c(C(F)(F)F)nc2ccc(Cl)cc2[n+]1[O-],> 100,> 100,13.4,29.6,> 100,> 100,56.8,> 100,> 100,> 100,> 100,> 100,> 100,> 100,> 100,> 100,> 100,> 100,> 100,> 100
N#Cc1nn(-c2cc(=O)[nH]c3ccc(Cl)cc23)c(N)c1C#N,> 100,> 100,> 100,> 100,> 100,> 100,11.5,> 100,> 100,> 100,> 100,> 100,> 100,> 100,> 100,> 100,> 100,> 100,> 100,> 100
